# Test results: paper PMC8222254, “Self-assembly of an anion receptor with metal-dependent kinase inhibition and potent in vitro anti-cancer properties” (Nature Communications, 2021)
# Several values for one entry are separate records, joined by “and”; a condition that tells them apart may be missing. Identical values can stand only once.
# What was measured:
# Assay in all cases: Kinase inhibition screen, cell-free 33P ATP assay at 10 μM
# Assay type in all cases: biochemical
# [1] = target: T1, 140 purified human kinases (Homo sapiens, UniProt O15530)
# T1 sequence (O15530 1-556): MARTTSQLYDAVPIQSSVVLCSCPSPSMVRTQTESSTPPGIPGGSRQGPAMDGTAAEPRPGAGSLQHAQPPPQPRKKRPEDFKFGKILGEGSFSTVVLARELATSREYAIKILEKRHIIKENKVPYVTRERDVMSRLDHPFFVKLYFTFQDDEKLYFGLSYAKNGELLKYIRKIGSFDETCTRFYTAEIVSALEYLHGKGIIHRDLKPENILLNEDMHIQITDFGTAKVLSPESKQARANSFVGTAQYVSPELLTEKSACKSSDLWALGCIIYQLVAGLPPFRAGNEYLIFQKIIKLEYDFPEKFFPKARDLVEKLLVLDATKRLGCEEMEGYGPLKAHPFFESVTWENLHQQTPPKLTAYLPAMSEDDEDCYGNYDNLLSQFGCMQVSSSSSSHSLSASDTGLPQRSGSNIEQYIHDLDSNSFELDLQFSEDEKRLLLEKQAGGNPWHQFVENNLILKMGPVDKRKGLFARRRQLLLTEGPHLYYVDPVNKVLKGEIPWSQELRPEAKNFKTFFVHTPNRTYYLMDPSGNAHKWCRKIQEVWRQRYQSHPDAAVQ
# Description: (§1) [L2Cu3]^6+ and [L2Zn3]^6+ were submitted to the MRC Protein Phosphorylation and Ubiquitination Unit International Centre for Kinase Profiling (University of Dundee) and tested in duplicate (at 10 μM) against a series of 140 purified human kinases in a cell-free kinase assay using ^33P ATP[55],[56]. The kinase gene IDs from the screen were then translated into common IDs (HGNC symbol) using biomaRt package[57],[58] in R[59] and R Studio[60] and used as input to the KinMap programme.
# [2] = target: 140 purified human kinases (Homo sapiens, UniProt P28482)
# Description: as §1
# [3] = target: 140 purified human kinases (Homo sapiens, UniProt Q02750)
# Description: as §1
# [4] = target: T2, 140 purified human kinases (Homo sapiens, UniProt Q12851); conditions: GCK
# T2 sequence (Q12851 1-820): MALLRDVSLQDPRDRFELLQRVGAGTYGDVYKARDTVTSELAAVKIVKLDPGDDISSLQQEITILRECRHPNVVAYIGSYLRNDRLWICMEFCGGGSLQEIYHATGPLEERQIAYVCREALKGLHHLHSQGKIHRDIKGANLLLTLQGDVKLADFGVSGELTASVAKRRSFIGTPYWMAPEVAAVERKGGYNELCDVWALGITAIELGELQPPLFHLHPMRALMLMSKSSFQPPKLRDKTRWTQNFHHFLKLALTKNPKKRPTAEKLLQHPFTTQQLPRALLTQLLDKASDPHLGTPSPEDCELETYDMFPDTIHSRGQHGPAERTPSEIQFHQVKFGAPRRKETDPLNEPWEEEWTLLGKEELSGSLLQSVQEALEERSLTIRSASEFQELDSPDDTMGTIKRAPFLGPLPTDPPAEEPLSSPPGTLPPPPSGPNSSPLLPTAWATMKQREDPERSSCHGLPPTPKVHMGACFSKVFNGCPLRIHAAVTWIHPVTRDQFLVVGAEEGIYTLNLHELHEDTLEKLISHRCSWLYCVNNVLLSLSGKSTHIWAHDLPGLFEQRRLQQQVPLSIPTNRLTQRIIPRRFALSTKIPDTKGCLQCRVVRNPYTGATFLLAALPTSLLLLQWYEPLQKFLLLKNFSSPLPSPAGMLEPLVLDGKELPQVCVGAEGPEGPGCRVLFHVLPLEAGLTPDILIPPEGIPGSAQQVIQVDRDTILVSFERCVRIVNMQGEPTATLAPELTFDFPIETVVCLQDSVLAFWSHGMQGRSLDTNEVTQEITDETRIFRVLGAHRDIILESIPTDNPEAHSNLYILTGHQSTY
# Description: as §1
# [5] = target: 140 purified human kinases (Homo sapiens, UniProt Q16816); conditions: PHK
# Description: as §1
# [6] = target: 140 purified human kinases (Homo sapiens, UniProt Q6IQ55)
# Description: as §1
# [7] = target: 140 purified human kinases (Homo sapiens, UniProt Q9BUB5)
# Description: as §1
# Sequence of 140 purified human kinases (Homo sapiens, UniProt P28482) (P28482 whole entry): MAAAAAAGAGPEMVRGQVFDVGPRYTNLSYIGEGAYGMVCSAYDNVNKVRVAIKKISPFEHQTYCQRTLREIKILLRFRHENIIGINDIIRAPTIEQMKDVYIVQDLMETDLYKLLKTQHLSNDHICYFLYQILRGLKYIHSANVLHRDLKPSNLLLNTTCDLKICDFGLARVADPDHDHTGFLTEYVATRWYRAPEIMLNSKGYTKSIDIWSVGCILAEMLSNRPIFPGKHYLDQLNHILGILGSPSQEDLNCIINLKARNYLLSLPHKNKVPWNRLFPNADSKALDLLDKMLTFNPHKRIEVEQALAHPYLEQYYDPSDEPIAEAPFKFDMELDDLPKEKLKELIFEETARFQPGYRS
# Sequence of 140 purified human kinases (Homo sapiens, UniProt Q02750) (Q02750 whole entry): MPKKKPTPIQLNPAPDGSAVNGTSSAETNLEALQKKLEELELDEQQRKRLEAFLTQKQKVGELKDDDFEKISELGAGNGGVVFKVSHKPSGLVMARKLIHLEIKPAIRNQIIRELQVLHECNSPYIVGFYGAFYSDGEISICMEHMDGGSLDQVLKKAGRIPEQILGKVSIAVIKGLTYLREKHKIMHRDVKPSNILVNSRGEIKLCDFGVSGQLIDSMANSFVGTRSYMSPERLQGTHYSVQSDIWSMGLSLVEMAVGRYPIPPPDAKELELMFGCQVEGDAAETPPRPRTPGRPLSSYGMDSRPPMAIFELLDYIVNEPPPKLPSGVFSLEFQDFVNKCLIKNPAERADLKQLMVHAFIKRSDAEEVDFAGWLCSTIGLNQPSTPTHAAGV
# Sequence of 140 purified human kinases (Homo sapiens, UniProt Q16816) (Q16816 whole entry): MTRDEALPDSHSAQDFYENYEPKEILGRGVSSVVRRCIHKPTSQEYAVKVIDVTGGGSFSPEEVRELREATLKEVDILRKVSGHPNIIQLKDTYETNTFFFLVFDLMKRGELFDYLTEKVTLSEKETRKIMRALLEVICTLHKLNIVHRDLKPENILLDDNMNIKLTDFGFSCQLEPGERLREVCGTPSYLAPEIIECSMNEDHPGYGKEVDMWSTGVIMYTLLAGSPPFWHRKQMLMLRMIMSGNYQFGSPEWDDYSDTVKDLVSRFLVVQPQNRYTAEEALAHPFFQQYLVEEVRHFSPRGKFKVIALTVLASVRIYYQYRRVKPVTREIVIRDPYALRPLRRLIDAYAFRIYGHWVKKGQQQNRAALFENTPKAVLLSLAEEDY
# Sequence of 140 purified human kinases (Homo sapiens, UniProt Q6IQ55) (Q6IQ55 whole entry): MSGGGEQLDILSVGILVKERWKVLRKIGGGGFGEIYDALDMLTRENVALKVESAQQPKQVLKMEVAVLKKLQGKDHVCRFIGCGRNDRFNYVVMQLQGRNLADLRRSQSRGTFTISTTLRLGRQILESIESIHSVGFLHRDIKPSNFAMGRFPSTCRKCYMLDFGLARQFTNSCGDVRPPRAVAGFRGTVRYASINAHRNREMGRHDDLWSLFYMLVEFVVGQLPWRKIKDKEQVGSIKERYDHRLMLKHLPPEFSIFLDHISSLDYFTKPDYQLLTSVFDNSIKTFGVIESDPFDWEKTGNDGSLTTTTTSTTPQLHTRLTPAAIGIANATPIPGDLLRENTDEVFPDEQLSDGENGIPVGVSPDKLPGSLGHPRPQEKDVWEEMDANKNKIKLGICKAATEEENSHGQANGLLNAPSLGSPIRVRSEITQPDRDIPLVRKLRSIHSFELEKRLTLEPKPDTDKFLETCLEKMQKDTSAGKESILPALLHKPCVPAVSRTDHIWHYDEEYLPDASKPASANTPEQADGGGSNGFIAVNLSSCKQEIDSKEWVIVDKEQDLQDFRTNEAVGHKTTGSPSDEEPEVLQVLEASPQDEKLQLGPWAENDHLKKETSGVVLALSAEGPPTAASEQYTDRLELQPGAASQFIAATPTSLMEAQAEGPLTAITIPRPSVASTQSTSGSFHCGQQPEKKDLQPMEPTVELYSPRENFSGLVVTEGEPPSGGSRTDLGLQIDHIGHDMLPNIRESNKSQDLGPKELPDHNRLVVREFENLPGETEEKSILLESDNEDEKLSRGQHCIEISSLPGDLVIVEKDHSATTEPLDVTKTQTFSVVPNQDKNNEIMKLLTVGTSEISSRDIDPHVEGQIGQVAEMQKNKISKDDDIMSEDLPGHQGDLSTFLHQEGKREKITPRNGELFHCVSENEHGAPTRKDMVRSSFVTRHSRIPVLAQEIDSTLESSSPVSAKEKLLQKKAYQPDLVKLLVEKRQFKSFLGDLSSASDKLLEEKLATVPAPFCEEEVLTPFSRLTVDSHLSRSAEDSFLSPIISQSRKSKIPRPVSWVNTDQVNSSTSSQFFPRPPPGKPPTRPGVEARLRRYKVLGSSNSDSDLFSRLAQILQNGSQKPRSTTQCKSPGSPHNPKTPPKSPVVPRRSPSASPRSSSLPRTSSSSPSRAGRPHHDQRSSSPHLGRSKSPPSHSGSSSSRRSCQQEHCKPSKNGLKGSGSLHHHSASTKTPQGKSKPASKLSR
# Sequence of 140 purified human kinases (Homo sapiens, UniProt Q9BUB5) (Q9BUB5 whole entry): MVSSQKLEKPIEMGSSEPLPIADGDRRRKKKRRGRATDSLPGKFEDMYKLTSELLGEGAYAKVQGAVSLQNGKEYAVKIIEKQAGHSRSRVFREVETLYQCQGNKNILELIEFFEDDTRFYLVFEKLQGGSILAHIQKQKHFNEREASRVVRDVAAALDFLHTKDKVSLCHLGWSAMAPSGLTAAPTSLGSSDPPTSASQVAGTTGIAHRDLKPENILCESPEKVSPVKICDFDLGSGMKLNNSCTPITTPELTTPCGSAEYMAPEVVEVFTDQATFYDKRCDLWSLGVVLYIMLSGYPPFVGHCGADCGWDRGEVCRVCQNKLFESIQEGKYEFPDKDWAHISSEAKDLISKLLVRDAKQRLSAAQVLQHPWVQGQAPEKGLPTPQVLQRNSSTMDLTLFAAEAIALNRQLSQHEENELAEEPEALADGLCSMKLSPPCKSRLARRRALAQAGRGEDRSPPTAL
compound,measurement,setting,value
[Cu+2].[Cu+2].[Cu+2].c1ccc(-c2csc(NCCN(CCNc3nc(-c4ccccn4)cs3)CCNc3nc(-c4ccccn4)cs3)n2)nc1.c1ccc(-c2csc(NCCN(CCNc3nc(-c4ccccn4)cs3)CCNc3nc(-c4ccccn4)cs3)n2)nc1 [[L2Cu3]6+],"% Activation, Mean value",[1]; PDK1,6.45%
same,% Inhibition Run 1,[1]; PDK1,12.4%
same,% Inhibition Run 2,[1]; PDK1,-25.3%
same,"% Inhibition, Mean",[1]; PDK1,-6.45%
same,mean % activity,[1]; PDK1,106%
same,% activity,"[1]; PDK1, Run 1",87.6%
same,% activity,"[1]; PDK1, Run 2",125.3%
same,% Inhibition Run 1,[2]; ERK2,12.1%
same,% Inhibition Run 2,[2]; ERK2,8.4%
same,"% Inhibition, Mean",[2]; ERK2,10%
same,mean % activity,[2]; ERK2,90%
same,% activity,"[2]; ERK2, Run 1",87.9%
same,% activity,"[2]; ERK2, Run 2",91.6%
same,% Inhibition Run 1,[3]; MKK1,34%
same,% Inhibition Run 2,[3]; MKK1,8.9%
same,"% Inhibition, Mean",[3]; MKK1,21%
same,mean % activity,[3]; MKK1,79%
same,% activity,"[3]; MKK1, Run 1",66%
same,% activity,"[3]; MKK1, Run 2",91.1%
same,% Inhibition Run 1,[4],83.9%
same,% Inhibition Run 2,[4],84.3%
same,"% Inhibition, Mean",[4],84%
same,mean % activity,[4],16%
same,% activity,[4]; Run 1,16.1%
same,% activity,[4]; Run 2,15.7%
same,% Inhibition Run 1,[5],59.9%
same,% Inhibition Run 2,[5],49.3%
same,"% Inhibition, Mean",[5],55%
same,mean % activity,[5],45%
same,% Inhibition Run 1,[6]; TTBK2,13%
same,% Inhibition Run 2,[6]; TTBK2,-12.2%
same,"% Inhibition, Mean",[6]; TTBK2,0.4%
same,mean % activity,[6]; TTBK2,100%
same,% activity,"[6]; TTBK2, Run 1",87%
same,% activity,"[6]; TTBK2, Run 2",112.2%
same,% Inhibition Run 1,[7]; MNK1,85.8%
same,% Inhibition Run 2,[7]; MNK1,80.4%
same,"% Inhibition, Mean",[7]; MNK1,83%
same,mean % activity,[7]; MNK1,17%
same,% activity,"[7]; MNK1, Run 1",14.2%
same,% activity,"[7]; MNK1, Run 2",19.6%
CC(=O)[O-].CC(=O)[O-].CC(=O)[O-].CC(=O)[O-].CC(=O)[O-].CC(=O)[O-].[Zn+2].[Zn+2].[Zn+2].c1ccc(-c2csc(NCCN(CCNc3nc(-c4ccccn4)cs3)CCNc3nc(-c4ccccn4)cs3)n2)nc1.c1ccc(-c2csc(NCCN(CCNc3nc(-c4ccccn4)cs3)CCNc3nc(-c4ccccn4)cs3)n2)nc1 [[L2Zn3]6+],"% Activation, Mean value",[1]; PDK1,46%
same,"% Inhibition, Mean",[1]; PDK1,-46%
same,mean % activity,[1]; PDK1,146%
same,% Activity Run 1,"[1]; PDK1, 10 µM",131.0%
same,% Activity Run 2,"[1]; PDK1, 10 µM",160.0%
same,% activity,"[1]; PDK1, duplicate runs",131% and 160%
same,"% Inhibition, Mean",[2]; ERK2,18%
same,"% Inhibition, Run 1 / Run 2",[2]; ERK2,19% and 18%
same,mean % activity,[2]; ERK2,82%
same,% activity,"[2]; ERK2, duplicate runs",81% and 82%
same,"% Activation, Mean value",[3]; MKK1,3%
same,"% Inhibition, Mean",[3]; MKK1,-3%
same,"% Inhibition, Run 1 / Run 2",[3]; MKK1,-3%
same,mean % activity,[3]; MKK1,103%
same,% activity,"[3]; MKK1, duplicate runs",103%
same,"% Inhibition, Mean",[4],83%
same,"% Inhibition, Run 1 / Run 2",[4],88% and 78%
same,mean % activity,[4],17%
same,% Activity inhibition Mean,[4]; 10 µM,83.0%
same,% Activity inhibition Run 1,[4]; 10 µM,88%
same,% Activity inhibition Run 2,[4]; 10 µM,78%
same,% Activity remaining Run 1,[4]; 10 µM,12%
same,% Activity remaining Run 2,[4]; 10 µM,22%
same,% activity,[4]; duplicate runs,12% and 22%
same,"% Inhibition, Mean",[5],64%
same,mean % activity,[5],36%
same,% activity,[5]; duplicate runs,32% and 39%
same,"% Activation, Mean value",[6]; TTBK2,0.5%
same,"% Inhibition, Mean",[6]; TTBK2,-0.5%
same,mean % activity,[6]; TTBK2,101%
same,% activity,"[6]; TTBK2, duplicate runs",91% and 110%
same,"% Activation, Mean value",[7]; MNK1,14%
same,"% Inhibition, Mean",[7]; MNK1,-14%
same,"% Inhibition, Run 1 / Run 2",[7]; MNK1,-12% and -15%
same,mean % activity,[7]; MNK1,114%
same,% Activity Run 1,"[7]; MNK1, 10 µM",112.0%
same,% Activity Run 2,"[7]; MNK1, 10 µM",115.0%
same,% activity,"[7]; MNK1, duplicate runs",112% and 115%
